Laboratory results published in BindingDB's records for doi:10.7270/Q2F18X5F (Nmmlsc, 2010).

Target: T1, Ammonium transporter MEP2 (Saccharomyces cerevisiae (strain ATCC 204508 / S288c), UniProt P41948)
T1 sequence (P41948 whole entry): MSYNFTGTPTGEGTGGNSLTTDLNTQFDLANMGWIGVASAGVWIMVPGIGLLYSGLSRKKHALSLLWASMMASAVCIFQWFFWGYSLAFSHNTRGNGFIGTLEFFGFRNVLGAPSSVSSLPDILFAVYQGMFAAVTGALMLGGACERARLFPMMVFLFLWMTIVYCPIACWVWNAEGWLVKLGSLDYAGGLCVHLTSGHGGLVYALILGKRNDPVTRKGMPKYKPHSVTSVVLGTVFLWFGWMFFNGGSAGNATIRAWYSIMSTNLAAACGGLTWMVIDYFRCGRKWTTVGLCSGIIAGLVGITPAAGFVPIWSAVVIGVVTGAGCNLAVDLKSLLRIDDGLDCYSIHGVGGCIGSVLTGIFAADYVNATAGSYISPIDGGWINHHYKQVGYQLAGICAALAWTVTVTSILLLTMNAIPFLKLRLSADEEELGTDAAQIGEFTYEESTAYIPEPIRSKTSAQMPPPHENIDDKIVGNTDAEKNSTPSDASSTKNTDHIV
Assay: modulators of MEP2-GFP levels in yeast, dose response, S. cerevisiae, flow cytometry GFP, MLPCN hits (AID 2742)

For `CCN1/C(=C/c2ccc3cc(C)ccc3[n+]2CC)Sc2ccc3sccc3c21` [MLS000724336], the EC50 was > 33 µM.
